Laboratory results: ChEMBL document CHEMBL1151871, “SAR around (l)-S-adenosyl-l-homocysteine, an inhibitor of human DNA methyltransferase (DNMT) enzymes” (Bioorg Med Chem Lett, 2009)
Active and inactive are the calls of the source. No cut-off for these calls is given here.

Assays:
[1] = biological target: DNA (cytosine-5)-methyltransferase 1 (Homo sapiens, UniProt P26358); assay: Inhibition of human recombinant DNMT1 expressed in baculovirus infected high five insect cells
[2] = biological target: T1, DNA (cytosine-5)-methyltransferase 3B (Homo sapiens, UniProt Q9UBC3); assay: Inhibition of human recombinant DNMT3b2 expressed in baculovirus infected high five insect cells at 45 uM
[3] = biological target: T1, DNA (cytosine-5)-methyltransferase 3B; assay: biochemical

DNA (cytosine-5)-methyltransferase 1, sequence (P26358 whole entry): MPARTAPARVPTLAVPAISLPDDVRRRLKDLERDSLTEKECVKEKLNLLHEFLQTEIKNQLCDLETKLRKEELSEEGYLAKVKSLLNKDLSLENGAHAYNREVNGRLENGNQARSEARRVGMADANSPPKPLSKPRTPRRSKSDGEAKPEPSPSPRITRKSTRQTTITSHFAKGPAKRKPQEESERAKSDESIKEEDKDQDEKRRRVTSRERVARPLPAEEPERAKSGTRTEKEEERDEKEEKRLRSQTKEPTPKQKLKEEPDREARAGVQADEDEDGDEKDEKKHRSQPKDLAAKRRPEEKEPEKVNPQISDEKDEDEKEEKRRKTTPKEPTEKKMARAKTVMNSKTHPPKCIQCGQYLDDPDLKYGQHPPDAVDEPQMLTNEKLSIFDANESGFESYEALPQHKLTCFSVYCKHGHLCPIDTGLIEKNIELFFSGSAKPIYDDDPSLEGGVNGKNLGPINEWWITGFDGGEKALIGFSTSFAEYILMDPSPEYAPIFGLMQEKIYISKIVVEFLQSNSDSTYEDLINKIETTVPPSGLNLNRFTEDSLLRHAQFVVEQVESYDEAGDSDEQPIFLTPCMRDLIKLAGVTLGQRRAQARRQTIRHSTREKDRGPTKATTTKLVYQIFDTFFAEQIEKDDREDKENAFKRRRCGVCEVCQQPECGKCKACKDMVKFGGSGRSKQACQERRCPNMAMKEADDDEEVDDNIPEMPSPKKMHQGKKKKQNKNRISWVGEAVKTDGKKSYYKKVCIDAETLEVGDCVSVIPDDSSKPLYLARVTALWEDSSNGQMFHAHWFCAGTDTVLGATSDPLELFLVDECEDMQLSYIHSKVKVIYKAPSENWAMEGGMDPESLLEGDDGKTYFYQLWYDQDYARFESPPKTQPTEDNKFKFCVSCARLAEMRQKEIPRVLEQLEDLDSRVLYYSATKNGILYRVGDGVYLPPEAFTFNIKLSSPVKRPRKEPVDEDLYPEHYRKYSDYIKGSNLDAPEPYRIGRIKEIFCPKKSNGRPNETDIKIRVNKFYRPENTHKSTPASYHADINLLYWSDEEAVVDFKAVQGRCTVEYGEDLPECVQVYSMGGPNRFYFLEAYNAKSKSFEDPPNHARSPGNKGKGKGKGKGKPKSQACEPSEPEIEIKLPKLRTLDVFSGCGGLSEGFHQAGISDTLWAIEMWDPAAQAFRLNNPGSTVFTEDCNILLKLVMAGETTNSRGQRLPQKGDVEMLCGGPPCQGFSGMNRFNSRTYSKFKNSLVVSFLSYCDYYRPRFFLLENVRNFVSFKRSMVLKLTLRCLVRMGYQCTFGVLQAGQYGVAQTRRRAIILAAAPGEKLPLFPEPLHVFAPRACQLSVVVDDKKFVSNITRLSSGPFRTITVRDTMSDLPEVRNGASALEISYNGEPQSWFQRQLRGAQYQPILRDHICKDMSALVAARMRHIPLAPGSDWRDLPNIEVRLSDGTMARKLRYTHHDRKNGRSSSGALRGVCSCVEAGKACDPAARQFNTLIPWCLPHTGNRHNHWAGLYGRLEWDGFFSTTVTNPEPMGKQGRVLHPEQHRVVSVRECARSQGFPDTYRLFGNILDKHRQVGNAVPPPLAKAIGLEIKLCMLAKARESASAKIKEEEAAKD

Compound	IC50 [1]	inhibition [2]	IC50 [3]
Nc1ncnc2c1nnn2[C@@H]1O[C@H](CSCCC(N)C(=O)O)[C@@H](O)[C@H]1O (some centres undefined)	8 µM	–	–
COc1nc(N)c2ncn([C@@H]3O[C@H](CSCCC(N)C(=O)O)[C@@H](O)[C@H]3O)c2n1 (some centres undefined)	75 µM	inactive	–
NC(CCSC[C@H]1O[C@@H](n2cnc3c(NCc4ccccc4)ncnc32)[C@H](O)[C@@H]1O)C(=O)O (some centres undefined)	61 µM	–	1 µM
CSc1nc(N)c2ncn([C@@H]3O[C@H](CSCCC(N)C(=O)O)[C@@H](O)[C@H]3O)c2n1 (some centres undefined)	216 µM	–	500 µM
N[C@@H](CCSC[C@H]1O[C@@H](n2cnc3c(=O)[nH]cnc32)[C@H](O)[C@@H]1O)C(=O)O	–	–	> 1000 µM
Nc1ncnc2c1ncn2[C@@H]1O[C@H](CSCC[C@H](N)C(=O)O)[C@@H](O)[C@H]1O (racemic) [S-ADENOSYLHOMOCYSTEINE]	–	–	0.3 µM
